The source of these data is patent publication US8415336B2, “Cyclic (aza)indolizinecarboxamides, their preparation and their use as pharmaceuticals” (Sanofi, priority 2009, dated 2013).

The structures appear in SMILES notation. pIC50: −log10 of the molar value. Structures can show the parent of a compound that is named as a salt.

One data set deals with T1, Recombinant human renin (Homo sapiens, UniProt P00797).
T1 construct: purchased Cayman 10006217
T1 sequence (P00797 67-406): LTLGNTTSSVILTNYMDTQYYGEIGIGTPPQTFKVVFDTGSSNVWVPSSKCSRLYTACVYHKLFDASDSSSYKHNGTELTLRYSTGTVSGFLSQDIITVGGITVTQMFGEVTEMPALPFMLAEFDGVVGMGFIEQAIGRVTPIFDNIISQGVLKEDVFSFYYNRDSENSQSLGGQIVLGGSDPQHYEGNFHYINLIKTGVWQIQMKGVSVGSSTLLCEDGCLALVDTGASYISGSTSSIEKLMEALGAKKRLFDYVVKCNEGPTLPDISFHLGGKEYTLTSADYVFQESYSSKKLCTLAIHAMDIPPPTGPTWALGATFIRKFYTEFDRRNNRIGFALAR
In words: Inhibition of renin (fluorogenic peptide substrate). Conditions: recombinant human renin 5 nM, fluorogenic peptide substrate 10 μM, 2 h at room temperature, Tris buffer pH 8; compounds tested as the obtained salt. Format: biochemical. As to the method: Recombinant human renin (Cayman, no. 10006217) at a concentration of 5 nM was incubated with the test compounds at various concentrations and the synthetic substrate Dabcyl-γ-Abu-Ile-His-Pro-Phe-His-Leu-Val-Ile-His-Thr-EDANS (Bachem, no. M-2050; Dabcyl means the 4-(4-dimethylamino-phenylazo)-benzoyl group and EDANS means the amide with 5-[(2-aminoethyl)amino]-naphthalene-1-sulfonic acid) at a concentration of 10 μM for 2 h at room temperature in 0.05 M Tris buffer (pH 8) containing 0.1 M NaCl, 2.5 mM EDTA and 1.25 mg/ml bovine serum albumin. The increase in fluorescence, which is due to fluorescence resonance energy transfer, was recorded at an excitation wavelength of 330 nm and an emission wavelength of 485 nm in a microplate spectrofluorometer. Inhibitory concentrations IC50 were calculated from the percentage of inhibition of renin activity as a function of the concentration of the test compound. […] Representative IC50 values, which were determined with the compounds in the form of the obtained salt indicated in the examples above, are listed in Table 4.
Take `Cc1c(F)cccc1Cc1c(C(=O)N2CCNCC2)c2ccccn2c1-c1ccccc1` [Example 11, [2-(3-Fluoro-2-methyl-benzyl)-3-phenyl-indolizin-1-yl]-piperazin-1-yl-methanone]: the pIC50 (in general, the IC50 on a negative log10 scale, so that one unit is a factor of ten) is 7.64.

For `COCCN(C)C(=O)C[C@H]1CN(C(=O)c2c(Cc3cccc(F)c3C)c(-c3ccccc3)c3cc(C(=O)N(C)C)cnn23)CCN1` [Example 46], the negative logarithm of the IC50 (pIC50) was 8.00.

In the case of `Cc1c(F)cccc1Cc1c(-c2ccccc2)c2ccccn2c1C(=O)N1CCNCC1` [Example 1, [2-(3-Fluoro-2-methyl-benzyl)-1-phenyl-indolizin-3-yl]-piperazin-1-yl-methanone], the pIC50 was 8.15.

Take `Cc1c(F)cccc1Cc1c(-c2ccccc2)c2ccccn2c1C(=O)N1CCN[C@@H](CC(=O)NCCS(C)(=O)=O)C1` [Example 31]: the negative-log IC50 (pIC50) was 7.68.

Regarding `Cc1c(F)cccc1Cc1c(C2CCCCC2)c2ccccn2c1C(=O)N1CCNCC1` [Example 2, [1-Cyclohexyl-2-(3-fluoro-2-methyl-benzyl)-indolizin-3-yl]-piperazin-1-yl-methanone], the pIC50 was 7.42.

As for `Cc1c(F)cccc1Cc1c(-c2ccccc2)c2cc(C(=O)N3CCCCC3)cnn2c1C(=O)N1CCN[C@@H](CC(=O)NCCO)C1` [Example 39], the negative-log IC50 (pIC50) was 8.13.

Regarding `COc1ccn2c(C(=O)N3CCNCC3)c(Cc3cccc(F)c3C)c(-c3ccccc3)c2c1` [Example 35, [2-(3-fluoro-2-methyl-benzyl)-7-methoxy-1-phenyl-indolizin-3-yl]-piperazin-1-yl-methanone], the negative-log IC50 (pIC50) was 7.55.

Tested on in a further data set: not given
Test: not given
Conditions: not given
With `CNC(=O)c1ccc2c(-c3ccccc3)c(Cc3cccc(F)c3C)c(C(=O)N3CCNCC3)n2c1` (as salt: hydrochloride) [Example 13, 2-(3-Fluoro-2-methyl-benzyl)-1-phenyl-3-(piperazine-1-carbonyl)-indolizine-6-carboxylic acid methylamide], the melting point (usually the temperature of the solid-liquid transition) is 273 °C.

In the case of `Cc1c(F)cccc1Cc1c(-c2ccccc2)c2cccnn2c1C(=O)N1CCNCC1` (as salt: hydrochloride) [Example 9, [6-(3-Fluoro-2-methyl-benzyl)-5-phenyl-pyrrolo[1,2-b]pyridazin-7-yl]-piperazin-1-yl-methanone], the melting point was 140 to 142 °C.

`Cc1c(F)cccc1Cc1c(-c2ccccc2)c2cc(C(=O)N3CCCCC3)cnn2c1C(=O)N1CCN[C@@H](CC(=O)NCCO)C1` (as salt: hydrochloride) [Example 39] yielded a melting point of 164 to 166 °C.

Molecule `Cc1cccc(C)c1Cc1c(-c2ccccc2)c2ccccn2c1C(=O)N1CCN[C@H](C)C1` (as salt: hydrochloride) [Example 17, [2-(2,6-Dimethyl-benzyl)-1-phenyl-indolizin-3-yl)-((R)-3-methyl-piperazin-1-yl)-methanone] showed a melting point of 302 °C.

`Cc1c(F)cccc1Cc1c(-c2ccccc2)c2ccccn2c1C(=O)N1CCN[C@@H](CC(=O)NCC(C)(C)C(N)=O)C1` (as salt: hydrochloride) [Example 7, 3-(2-{(S)-4-[2-(3-Fluoro-2-methyl-benzyl)-1-phenyl-indolizine-3-carbonyl]-piperazin-2-yl}-acetylamino)-2,2-dimethyl-propionamide] came in with a melting point of 174 to 176 °C.

`COc1ccn2c(C(=O)N3CCNCC3)c(Cc3cccc(F)c3C)c(-c3ccccc3)c2c1` (as salt: hydrochloride) [Example 35, [2-(3-fluoro-2-methyl-benzyl)-7-methoxy-1-phenyl-indolizin-3-yl]-piperazin-1-yl-methanone]: the melting point was in the range of 124 to 125 °C.

As to `Cc1c(F)cccc1Cc1c(-c2ccccc2)c2ccccn2c1C(=O)N1CCN[C@@H](CC(=O)NCC2CCOCC2)C1` (as salt: hydrochloride) [Example 6, 2-{(S)-4-[2-(3-Fluoro-2-methyl-benzyl)-1-phenyl-indolizine-3-carbonyl]-piperazin-2-yl}-N-(tetrahydropyran-4-ylmethyl)-acetamide], the melting point was found to be 147 °C.
